# In patent US9289490B2, “Combinations and uses thereof” (MORPHOSYS AG, priority 2010, dated 2016):
# Values joined by “and” are separate entries in the source; they are usually repeats but may differ in a detail not shown here. Equal entries are not always repeated.
# Assays:
# NCI-H929 cells [1] = details: 5 µM
# Procedure: (§6) PBMC's were isolated by density gradient centrifugation of freshly isolated human blood. Isolated blood from different donors were layered on a defined volume of Biocoll (Biochrome AG; CAT No.:L6115; LOT No.:1050T) in a Falcon tube and centrifuged at 380 g. The PBMCs were isolated and supplemented with RPMI medium.
# (§7) Cell suspensions were further incubated for 4 h at 37° C. To detect dead AMO-1 cells, cell suspensions were challenged with propidium iodide (PI) and subsequently analyzed in flow cytometry. Target cells were separated via gating of CalceinAM positive cell populations, and cells killed via ADCC were quantified.
# (§8) Single and combination doses of 5 μM LEN and 15 μg/ml of MOR03207 and 0.2 or 0.07 μg/ml MOR202 were used.
# (§9) Single and combination doses of 5 μM LEN and 15 μg/ml of MOR03207 and 0.2* or 0.07 μg/m MOR202 were used.
# NCI-H929 cells [2] = experiment: ADCC with human PBMCs, flow cytometry (CalceinAM/PI)
# Procedure: as §6, §7, §8, §9
# AMO-1 cells [3] = experiment: Cell proliferation, XTT-based assay; design: species or system human
# Procedure: (§10) Cells were collected and distributed in 96-well plates with 5000 cells per well.
# (§11) After incubation, plates were analyzed for cell proliferation in a quantitative colorimietric XTT-based assay using the cell proliferation kit II (ROCHE, Cell Proliferation Kit II, Cat. No.: 11465015001). For subsequent measurement plates were subjected to Tecan Genios Reader and absorbance at 492 nm was detected.
# (§12) Increasing amounts of Bortezomib (Velcade®, Lot: No.: #9AZSY00) were applied to AMO-1, LP-1, NCI-H929 and RPMI-8226 cells and incubated for 24 h, 48 h and 72 h. After incubation, period plates were analyzed for cell proliferation in a quantitative colorimietric XTT-based assay using the cell proliferation kit II (ROCHE, Cell Proliferation Kit II, Cat. No.: 11465015001). For subsequent measurement, plates were subjected to Tecan Genios Reader and absorbance at 492 nm was detected.
# AMO-1 cells [4] = experiment: ADCC with human PBMCs, flow cytometry (CalceinAM/PI); type: cell-based
# Procedure: For Tables 3b-c, “Theoretical Combination” represents the addition of the values of MOR202 alone and the values of LEN alone. The normalized data of Table 3b is calculated as follows. Therefore, the specific killing values of Table 3b are calculated by subtracting the values of the controls. Then the specific killing values are compared to the MOR202 group, which is set as 1.
# The constant m determines the shape of the dose-effect curve. We used Excel Fit software to carry out a linear regression calculation to estimate the parameters m and D50.
# The CI-isobol method provides a quantitative assessment of synergism between drugs. A combination index (CI) is estimated from dose-effect data of single and combined drug treatments. […] Formally, the combination index (CI) of a combined drug treatment is defined as CI=D1/Dx1+D2/Dx2
# The data is analysed in the following way: Antagonistic(AB)/C<(A/C)×(B/C) Additive(AB)/C=(A/C)×(B/C) Synergistic(AB)/C>(A/C)×(B/C) where A is the treatment with LEN alone; B is the treatment with MOR202 alone; C is response to the treatment vehicle; AB is combination of treatments A and B.
# [5] = test system: NCI-H929 human multiple myeloma cells; experiment: NCI-H929 bone lysis SCID mouse MM model, MOR202 and LEN (MicroCT); type: in vivo, SCID mice
# Procedure: 63 SCID mice were inoculated on Day (−7) orthotopically into the right tibia with 2.5×10^6 NCI-H929 MM cells (in 5 μL) in order to induce bone lysis. Lenalidomide (Groups A and D) and Vehicle Control (Group C) treatments started on Day (−1). MOR202 treatments (Groups B and D) started on Day 0. Treatment continued for 6 weeks.
# MicroCT Scan was used to assess bone lysis and included […] analysis comprising Total Bone Volume (TBV), Trabecular Bone Volume (Tb.BV), Trabecular Pattern Factor (Tb.Pf) and Structure Model Index (SMI). Table 10 defines each of these parameters.
# AMO-1 cells [6] = experiment: CD38 surface expression after lenalidomide (FACS, ABC); type: cell-based, human
# Procedure: (§1) Cells were stained with a directly labelled QuantiBRITE™ CD38-PE antibody (Becton Dickinson GmbH, Clone HB7, CAT #342371), which is specific for CD38. The “Antibodies Bound Per Cell” (ABC's) were determined using the flow cytometry based QuantiBRITE™ system, which measures the geometric mean (GeoMean) per cell. Conversion of measured GeoMean into correlating ABC amount per cell was done with GraphPad PRISM™ software. The ABC values are assumed to correlate with the number of CD38 molecules per cell, since QuantiBRITE™ CD38-PE carries one PE molecule per antibody.
# (§2) To determine whether lenalidomide induced upregulation of CD38 in the multiple myeloma and plasmacytoma cells of Table 1, the cell lines were incubated with 100 μM lenalidomide and, subsequently, CD38 surface expression was analyzed by FACS.
# (§3) Around 2×10^5 cells of each of the cells lines of Table 1 were plated on 48-well dishes in standard RPMI medium. Lenalidomide, purchased from Selleck Chemicals (LLC S1029, CAS No. 191732-6; Batch: S10290), was applied to respective wells to a final concentration of 100 μM in a volume of 750 μl containing 20% FCS and 0.1% DMSO.
# (§4) Cells were resuspended by gentle pipetting and 250 μl of cell suspension per incubation period were transferred into a well of a 96-well round bottom plate. Cells were washed by centrifugation for 1 min at 700×g and were resuspended in 150 μl of cold FACS buffer (1×PBS supplemented with 3% FCS). Cells were again pelleted down by centrifugation and were resuspended in 150 μl of FACS buffer containing 15 μg/ml of anti-CD38 antibody (MOR202, IgG1) or control antibody MOR03207 and incubated for 1 h on ice. Cells were then washed 3 times by centrifugation and were resuspended in FACS buffer supplemented with PE-labeled secondary antibody (PE-Fab2 fragment, goat anti-human IgG. Fc-fragment specific; Jackson Immuno Research; CAT: 109-116-098; Lot: 80938). Cells were incubated for 45 minutes on ice, then washed 3 times by centrifugation and resuspended in FACS buffer. The cell suspensions were then subjected to FACS analysis using a FACS array device.
# (§5) Additionally, the affect of lenalidomide on the CD38 expression of AMO-1 cells is shown in FIG. 1, and the affect of lenalidomide on the CD38 expression of NCI-H929 cells is shown in FIG. 5.
# OPM-2 cells = experiment: as above; type: cell-based, human
# Procedure: as §1, §2, §3, §4, §5
# LP-1 cells = experiment: as above; type: cell-based, human
# Procedure: as §1, §2, §3, §4, §5
# NCI-H929 cells [7] = experiment: as above; type: cell-based, human
# Procedure: as §1, §2, §3, §4, §5
# RPMI-8226 cells = experiment: as above; type: cell-based, human
# Procedure: as §1, §2, §3, §4, §5
# NCI-H929 cells [8] = experiment: Cell proliferation, XTT-based assay; details: NCI-H929 cells
# Procedure: as §10, §11, §12
# [9] = LEN 50 mg/kg p.o. once daily, MOR202 3 mg/kg i.p. 3 times weekly, 6 weeks, lower = less bone lysis
# [10] = group mean of 10 mice, LEN 50 mg/kg p.o., MOR202 3 mg/kg i.p., 6 weeks
smiles,measurement,setting,value
"Nc1cccc2c1CN(C1CCC(=O)NC1=O)C2=O (stereo not shown) [LEN, lenalidomide]","Normalized specific killing, fractional product combination set as 1 (Table 7b), Exp. 1",NCI-H929 cells [1],0.67
same,"Normalized specific killing, fractional product combination set as 1 (Table 8b), Exp. 1",NCI-H929 cells [1],−0.10
same,Enhancement of MOR202 activity by LEN (in words),"NCI-H929 cells [2]; NCI-H929 cells, Fractional Product Concept and Chou et al., 6 out of 6 experiments each",synergistically enhanced MOR202 activity
same,"% dead cells (raw data, Table 7a), Exp. 2 and 3","NCI-H929 cells [2]; PBMCs and NCI-H929 cells treated with LEN before MOR202, LEN 5 μM, MOR202 0.07 μg/ml, MOR03207 15 μg/ml",39.92 % dead cells and 41.92 % dead cells
same,"% dead cells (raw data, Table 7a), Exp. 1","NCI-H929 cells [2]; PBMCs and NCI-H929 cells treated with LEN before MOR202, LEN 5 μM, MOR202 0.2 μg/ml (*), MOR03207 15 μg/ml",38.65 % dead cells
same,"Normalized specific killing, AVERAGE (Table 7b)","NCI-H929 cells [2]; PBMCs and NCI-H929 cells treated with LEN, LEN 5 μM, MOR202 0.2 or 0.07 μg/ml, average of 3 experiments",0.63
same,"% dead cells (raw data, Table 8a), Exp. 2 and 3","NCI-H929 cells [2]; only effector cells treated with LEN before MOR202, LEN 5 μM, MOR202 0.07 μg/ml, MOR03207 15 μg/ml",26.27 % dead cells and 25.72 % dead cells
same,"% dead cells (raw data, Table 8a), Exp. 1","NCI-H929 cells [2]; only effector cells treated with LEN before MOR202, LEN 5 μM, MOR202 0.2 μg/ml (*), MOR03207 15 μg/ml",17.50 % dead cells
same,"Normalized specific killing, AVERAGE (Table 8b)","NCI-H929 cells [2]; only effector cells treated with LEN, LEN 5 μM, MOR202 0.2 or 0.07 μg/ml, average of 3 experiments",0.02
same,Cytotoxicity of lenalidomide alone (in words),AMO-1 cells [3],low cytotoxity against AMO-1 cells
same,Cell killing by lenalidomide alone (in words),AMO-1 cells [4]; AMO-1 cells,no effect on AMO-1 cells regarding cell killing
same,Enhancement of MOR202 ADCC activity by LEN (in words),"AMO-1 cells [4]; AMO-1 cells, Clarke et al. all 6 experiments, Chou et al. 6 out of 6",synergistically enhanced MOR202 ADCC activity
same,"Normalized specific killing, theoretical combination set as 1, AVERAGE (Table 3c)","AMO-1 cells [4]; PBMCs and AMO-1 cells treated with LEN, MOR202 0.42 μg/ml, LEN 5 μM, average of 3 experiments",0.2
same,"% dead cells (raw data, Table 4a)","AMO-1 cells [4]; only PBMCs (effector cells) treated with LEN before MOR202, LEN 10 μM, MOR202 and MOR03207 15 μg/ml, Exp. 1-3",17.93 % dead cells and 15.33 % dead cells and 12.98 % dead cells
same,"Normalized specific killing, theoretical combination set as 1, AVERAGE (Table 4c)","AMO-1 cells [4]; only effector cells treated with LEN, MOR202 0.42 μg/ml, LEN 5 μM, average of 3 experiments",0.1
same,"Structure Model Index (SMI), individual mouse",[5]; [9],2.679 and 2.667 and 2.335 and 2.560 and 2.086 and 2.619 and 2.562 and 2.592 and 2.547 and 3.125
same,"Trabecular Pattern Factor (Tb · Pf), individual mouse",[5]; [9],24.329 mm^−1 and 23.561 mm^−1 and 22.893 mm^−1 and 28.280 mm^−1 and 22.213 mm^−1 and 30.739 mm^−1 and 24.016 mm^−1 and 29.454 mm^−1 and 24.205 mm^−1 and 38.360 mm^−1
same,"Structure Model Index (SMI), Mean",[5]; [10],2.577
same,"Trabecular Pattern Factor (Tb · Pf), Mean",[5]; [10],26.805 mm^−1
same,Reduction of bone lysis compared to vehicle control,"[5]; non-inoculated tibia = 0%, vehicle = 100% bone lysis, MOR202 alone 12 mg/kg, LEN alone 50 mg/kg, combination 3 mg/kg MOR202 and 50 mg/kg LEN",20%
same,Absolute number of ABC (CD38 expression) LEN (extrapolated),AMO-1 cells [6]; 100 μM lenalidomide,"115,000 ABC"
same,Absolute number of ABC (CD38 expression) INCREASE,AMO-1 cells [6]; 100 μM lenalidomide vs basal,"90,000 ABC"
same,Fold increase (CD38 expression),AMO-1 cells [6]; 100 μM lenalidomide vs basal,4.5 fold
same,Absolute number of ABC (CD38 expression) LEN (extrapolated),OPM-2 cells; 100 μM lenalidomide,"98,800 ABC"
same,Absolute number of ABC (CD38 expression) INCREASE,OPM-2 cells; 100 μM lenalidomide vs basal,"60,800 ABC"
same,Fold increase (CD38 expression),OPM-2 cells; 100 μM lenalidomide vs basal,2.6 fold
same,Absolute number of ABC (CD38 expression) LEN (extrapolated),LP-1 cells; 100 μM lenalidomide,"162,500 ABC"
same,Effect (on CD38 expression),LP-1 cells; 100 μM lenalidomide,No
same,Absolute number of ABC (CD38 expression) INCREASE,LP-1 cells; 100 μM lenalidomide vs basal,"37,500 ABC"
same,Fold increase (CD38 expression),LP-1 cells; 100 μM lenalidomide vs basal,1.3 fold
same,Absolute number of ABC (CD38 expression) LEN (extrapolated),NCI-H929 cells [7]; 100 μM lenalidomide,"390,000 ABC"
same,Effect (on CD38 expression),NCI-H929 cells [7]; 100 μM lenalidomide,Weak
same,Absolute number of ABC (CD38 expression) INCREASE,NCI-H929 cells [7]; 100 μM lenalidomide vs basal,"195,000 ABC"
same,Fold increase (CD38 expression),NCI-H929 cells [7]; 100 μM lenalidomide vs basal,2.0 fold
same,Absolute number of ABC (CD38 expression) LEN (extrapolated),RPMI-8226 cells; 100 μM lenalidomide,"871,000 ABC"
same,Effect (on CD38 expression),RPMI-8226 cells; 100 μM lenalidomide,Weak
same,Absolute number of ABC (CD38 expression) INCREASE,RPMI-8226 cells; 100 μM lenalidomide vs basal,"199,000 ABC"
same,Fold increase (CD38 expression),RPMI-8226 cells; 100 μM lenalidomide vs basal,1.3 fold
same,Inhibition of cell proliferation by lenalidomide alone (in words),NCI-H929 cells [8],significant effect on the proliferation of NCI-H929 cells
same,Inhibition of cell proliferation by lenalidomide alone (in words),NCI-H929 cells [8]; listed as Lenalidomide,signficantly inhibited cell proliferation
